What all share (assay type): cell-based
What all share (conditions): CreLuc reporter gene assay

One assay has as its target T1, hGLP1R (Homo sapiens, UniProt P43220).
T1 construct: expressed in transfected cells; host or cells: HEK-293 cells carrying a CRE-luciferase reporter gene
The assay can be described thus: hGLP1R CreLuc reporter gene assay in 0.5% and 100% plasma. The method, boiled down: (§1)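 HEK cells (GLP-1R, NPY2R) or CHO cells (GIPR) carrying a CRE-luciferase reporter, incubated 4 h at 37 °C with peptides in HBSS/20 mM HEPES pH 7.4 plus 0.5% human plasma, or in 100% plasma. Luminescence read; EC50 from 8-point variable-slope sigmoid fits.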

Another assay has as its target T2, hGIPR (Homo sapiens, UniProt P48546).
T2 construct: expressed in transfected cells; host or cells: CHO cells carrying a CRE-luciferase reporter gene
T2 sequence (P48546 22-466): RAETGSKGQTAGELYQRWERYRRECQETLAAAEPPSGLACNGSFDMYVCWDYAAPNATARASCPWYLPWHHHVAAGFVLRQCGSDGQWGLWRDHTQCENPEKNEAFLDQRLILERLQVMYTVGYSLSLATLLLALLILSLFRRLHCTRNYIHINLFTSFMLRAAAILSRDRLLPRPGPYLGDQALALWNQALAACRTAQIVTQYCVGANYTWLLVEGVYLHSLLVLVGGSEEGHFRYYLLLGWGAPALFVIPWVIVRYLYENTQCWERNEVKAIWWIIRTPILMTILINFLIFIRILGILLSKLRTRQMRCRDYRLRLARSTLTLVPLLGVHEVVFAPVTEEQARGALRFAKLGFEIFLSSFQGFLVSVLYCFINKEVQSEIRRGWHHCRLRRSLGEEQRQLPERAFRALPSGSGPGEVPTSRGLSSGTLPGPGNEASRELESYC
The assay can be described thus: hGIPR CreLuc reporter gene assay in 0.5% and 100% plasma. In short, it runs like this: as §1

The target of a further assay is T3, hNPY2R (Homo sapiens, UniProt P49146).
T3 construct: expressed in transfected cells; host or cells: HEK-293 cells carrying a CRE-luciferase reporter gene
T3 sequence (P49146 1-381): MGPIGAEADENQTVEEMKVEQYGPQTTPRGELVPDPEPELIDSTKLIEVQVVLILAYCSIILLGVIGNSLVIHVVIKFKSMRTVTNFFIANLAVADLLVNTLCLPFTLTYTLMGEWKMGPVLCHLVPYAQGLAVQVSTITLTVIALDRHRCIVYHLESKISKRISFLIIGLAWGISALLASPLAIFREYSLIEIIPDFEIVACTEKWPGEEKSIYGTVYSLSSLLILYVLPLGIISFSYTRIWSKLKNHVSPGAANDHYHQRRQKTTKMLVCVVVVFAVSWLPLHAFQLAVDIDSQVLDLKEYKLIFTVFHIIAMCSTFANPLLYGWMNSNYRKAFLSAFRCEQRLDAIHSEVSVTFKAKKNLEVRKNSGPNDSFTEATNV
The assay can be described thus: hNPY2R CreLuc reporter gene assay in 0.5% and 100% plasma. In short, it runs like this: as §1

The mark [1] stands for this setting: 0.5% human plasma, read-out: hGLP1R 0.5% hP.
Where [2] appears, read: 0.5% human plasma, read-out: hGIPR 0.5% hP.
Where [3] appears, read: 0.5% human plasma, read-out: hNPY2R 0.5% hP.
Where [4] appears, read: 100% human plasma, read-out: hNPY2R 100% hP.
Where [5] appears, read: 100% human plasma, read-out: hGIPR 100% hP.
[6] abbreviates: 100% human plasma, read-out: hGLP1R 100% hP.

pEC50: −log10 of the molar value. Where two headings read alike, the source gives them in different places. Starred links: 1 amine or outer side, 2 acyl side, 3 side chain; linkers in the order of their positions; H or OH if unused. Positions of bridges follow the written chain, without caps; N, C: chain ends. Non-standard residues stand in square brackets, D forms with d. Groups on a side chain read outwards from the residue. Chains are numbered I, II in the order given. No end group written: not given here. *: point of attachment. C20 diacid = O=C(O)CCCCCCCCCCCCCCCCCCC(=O)*; C18 diacid = O=C(O)CCCCCCCCCCCCCCCCC(=O)*; γGlu = O=C(O)[C@H](CCC(=O)[*:2])N[*:1]; εLys = N[C@@H](CCCCN[*:1])C(=O)[*:2]; hArg = N=C(N)NCCCC[C@H](N)C(=O)O; AEEA = NCCOCCOCC(=O)O; Aib = CC(C)(N)C(=O)O; Ahx = NCCCCCC(=O)O

T1 sequence (P43220 24-463): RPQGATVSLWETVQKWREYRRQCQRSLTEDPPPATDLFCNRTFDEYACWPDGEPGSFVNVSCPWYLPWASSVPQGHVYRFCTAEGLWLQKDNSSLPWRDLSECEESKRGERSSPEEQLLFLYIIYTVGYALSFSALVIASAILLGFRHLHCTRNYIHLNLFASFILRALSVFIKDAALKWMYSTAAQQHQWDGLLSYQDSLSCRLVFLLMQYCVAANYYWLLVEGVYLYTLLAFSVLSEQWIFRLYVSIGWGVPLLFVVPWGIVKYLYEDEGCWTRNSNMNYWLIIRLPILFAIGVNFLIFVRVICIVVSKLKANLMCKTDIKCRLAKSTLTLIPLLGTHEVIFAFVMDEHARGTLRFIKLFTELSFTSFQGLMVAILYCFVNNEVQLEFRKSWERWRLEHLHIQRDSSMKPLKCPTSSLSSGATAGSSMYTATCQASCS

As for “H-Y[Aib]EGTFTSDYSI[Aib]LEKQAQ[Aib]AFVQWLIK([εLys-γGlu-γGlu-γGlu-γGlu-γGlu-C18 diacid])GGPSEPASLRHYYNWLTRQRY-NH2 [Compound 148, Y-Aib-E-G-T-F-T-S-D-Y-S-I-Aib-L-E-K-Q-A-Q-Aib-A-F-V-Q-W-L-I-K(1,3)-GGPSEPASLRHYYNWLTRQRY-NH2.C18DA-gGlu-gGlu-gGlu-gGlu-gGlu-eLys(1,2)]”, the pEC50 on hGLP1R (setting [1]) was 10.10; at hGIPR (setting [2]), 10.15; on hNPY2R (setting [3]), 7.96; on hNPY2R (setting [4]), 7.68.
In the case of “Y[Aib]EGTFTSDYSI[Aib]LEKQAQ[Aib]AFVQWLIK([Glu-γGlu-γGlu-γGlu-γGlu-C20 diacid])GGPSEGASLRHYYNWLTRQRY-NH2 [Compound 243, Y-Aib-E-G-T-F-T-S-D-Y-S-I-Aib-L-E-K-Q-A-Q-Aib-A-F-V-Q-W-L-I-K(1,3)-GGPSEGASLRHYYNWLTRQRY-NH2.C20DA-gGlu-gGlu-gGlu-gGlu-Glu(1,2)]”, the values for the pEC50 on hGLP1R (setting [1]), at hGIPR (setting [2]) and on hNPY2R (setting [4]) were 9.92, 9.27 and 7.30, respectively.
For “H-Y[Aib]EGTFTSDYSI[Aib]LEKQAQ[Aib]EFVQWLIK([εLys-γGlu-γGlu-γGlu-γGlu-γGlu-γGlu-γGlu-C20 diacid])GGPSSGASLRHYYNWLTRQRY-NH2 [Compound 43, Y-Aib-E-G-T-F-T-S-D-Y-S-I-Aib-L-E-K-Q-A-Q-Aib-E-F-V-Q-W-L-I-K(1,3)-GGPSSGASLRHYYNWLTRQRY-NH2.C20DA-gGlu-gGlu-gGlu-gGlu-gGlu-gGlu-gGlu-eLys(1,2)]”, the pEC50 at hGLP1R (setting [1]) was 9.39; on hGIPR (setting [2]), 9.19; on hGIPR (setting [5]) it was 8.71; on hNPY2R (setting [3]), 7.88; on hNPY2R (setting [4]), 7.68.
On to “H-Y[Aib]EGTFTSDYSI[Aib]LEKQAQ[Aib]AFVEWLIK([εLys-γGlu-γGlu-γGlu-γGlu-γGlu-γGlu-C20 diacid])GGPSSGASLRHYYNWLT[hArg]QR[dY]-NH2 [Compound 71, Y-Aib-E-G-T-F-T-S-D-Y-S-I-Aib-L-E-K-Q-A-Q-Aib-A-F-V-E-W-L-I-K(1,3)-G-G-P-S-S-G-A-S-L-R-H-Y-Y-N-W-L-T-hArg-Q-R-DTyr-NH2.C20DA-gGlu-gGlu-gGlu-gGlu-gGlu-gGlu-eLys(1,2)]”, for which the pEC50 at hGLP1R (setting [1]) was 9.85; at hGLP1R (setting [6]), 8.95; at hGIPR (setting [2]) it was 9.89; at hGIPR (setting [5]), 9.19; on hNPY2R (setting [3]) it was less than 7.00; on hNPY2R (setting [4]) it was less than 6.00.
For the substance “H-Y[Aib]EGTFTSDYSI[Aib]LEKQAQ[Aib]AFVEWLIK([Ahx-γGlu-γGlu-γGlu-γGlu-γGlu-C18 diacid])GGPSSGASLRHYYNWLTRQRY-NH2 [Compound 260, Y-Aib-E-G-T-F-T-S-D-Y-S-I-Aib-L-E-K-Q-A-Q-Aib-A-F-V-E-W-L-I-K(1,3)-GGPSSGASLRHYYNWLTRQRY-NH2.C18DA-gGlu-gGlu-gGlu-gGlu-gGlu-AHX(1,2)]”, the pEC50 at hGLP1R (setting [1]) is 9.89; at hGIPR (setting [2]) it was 9.51; on hNPY2R (setting [3]) it was 7.58.
In the case of “H-Y[Aib]EGTFTSDYSI[Aib]LEKQAQ[Aib]EFVQWLIK([γGlu-γGlu-γGlu-γGlu-γGlu-C18 diacid])GGPSEGASLRHYYNWLTRQRY-NH2 [Compound 141, Y-Aib-E-G-T-F-T-S-D-Y-S-I-Aib-L-E-K-Q-A-Q-Aib-E-F-V-Q-W-L-I-K(1,3)-GGPSEGASLRHYYNWLTRQRY-NH2.C18DA-gGlu-gGlu-gGlu-gGlu-gGlu(1,2)]”, the pEC50 at hGLP1R (setting [1]) was 9.60; at hGIPR (setting [2]) it was 9.40; at hNPY2R (setting [3]), 7.93; on hNPY2R (setting [4]) it was 7.45.
“I: Y[Aib]EGTFTSDYSI[Aib]LEKQAQ[Aib]AFVQWLIKGGPSEGASLRHYYNWLTRQRY-NH2 / II: {C20 diacid}-EEEEE[εLys] (amide I:28-II:C) [Compound 240, Y-Aib-E-G-T-F-T-S-D-Y-S-I-Aib-L-E-K-Q-A-Q-Aib-A-F-V-Q-W-L-I-K(1,3)-GGPSEGASLRHYYNWLTRQRY-NH2.C20DA-E-E-E-E-E-eLys(1,2)]”: the pEC50 on hGLP1R (setting [1]) is 9.85; at hGLP1R (setting [6]), 8.17; at hGIPR (setting [2]), 9.48; on hGIPR (setting [5]) it was 8.71; at hNPY2R (setting [3]), 7.97.
As for “H-Y[Aib]EGTFTSDYSI[Aib]LEKQAQ[Aib]AFVEWLIK([Glu-Glu-Glu-Glu-C18 diacid])GGPSEGASLRHYYNWLTRQRY-NH2 [Compound 291, Y-Aib-E-G-T-F-T-S-D-Y-S-I-Aib-L-E-K-Q-A-Q-Aib-A-F-V-E-W-L-I-K(1,3)-GGPSEGASLRHYYNWLTRQRY-NH2.C18DA-E-E-E-E(1,2)]”, the pEC50 was 10.00 at hGLP1R (setting [1]), 9.74 on hGIPR (setting [2]), 9.15 on hGIPR (setting [5]) and 7.84 on hNPY2R (setting [3]).
For “H-Y[Aib]EGTFTSDYSI[Aib]LEKQAQ[Aib]AFVEWLIK([AEEA-AEEA-Glu-Glu-Glu-C18 diacid])GGPSEGASLRHYYNWLTRQRY-NH2 [Compound 298, Y-Aib-E-G-T-F-T-S-D-Y-S-I-Aib-L-E-K-Q-A-Q-Aib-A-F-V-E-W-L-I-K(1,3)-GGPSEGASLRHYYNWLTRQRY-NH2.C18DA-E-E-E-OEG-OEG(1,2)]”, in that order: 9.96, 9.89, 8.90 and 7.92.
As for “H-Y[Aib]EGTFTSDYSI[Aib]LEKQAQ[Aib]AFVEWLIK([εLys-γGlu-γGlu-γGlu-γGlu-γGlu-γGlu-C20 diacid])GGPSEYESLRHYYNWLTRQRY-NH2 [Compound 93, Y-Aib-E-G-T-F-T-S-D-Y-S-I-Aib-L-E-K-Q-A-Q-Aib-A-F-V-E-W-L-I-K(1,3)-GGPSEYESLRHYYNWLTRQRY-NH2.C20DA-gGlu-gGlu-gGlu-gGlu-gGlu-gGlu-eLys(1,2)]”, the pEC50 is 9.66 at hGLP1R (setting [1]); 8.05 at hGLP1R (setting [6]); 9.85 at hGIPR (setting [2]); 8.63 on hGIPR (setting [5]); 7.82 on hNPY2R (setting [3]); 7.07 at hNPY2R (setting [4]).
With “H-Y[Aib]EGTFTSDYSI[Aib]LEKQAQ[Aib]AFVQWLIK([γGlu-γGlu-γGlu-γGlu-γGlu-C20 diacid])GGPESPASLRHYYNWLTRQRY-NH2 [Compound 11, Y-Aib-E-G-T-F-T-S-D-Y-S-I-Aib-L-E-K-Q-A-Q-Aib-A-F-V-Q-W-L-I-K(1,3)-GGPESPASLRHYYNWLTRQRY-NH2.C20DA-gGlu-gGlu-gGlu-gGlu-gGlu(1,2)]”, the pEC50 on hGLP1R (setting [1]) was 9.96; on hGIPR (setting [2]), 9.77; at hNPY2R (setting [3]), 7.99.
On to “H-Y[Aib]EGTFTSDYSI[Aib]LEKQAQ[Aib]AFVEWLIK([γGlu-γGlu-γGlu-γGlu-γGlu-C20 diacid])GGPSEGASLRHYYNWLTRQRY-NH2 [Compound 289, Y-Aib-E-G-T-F-T-S-D-Y-S-I-Aib-L-E-K-Q-A-Q-Aib-A-F-V-E-W-L-I-K(1,3)-GGPSEGASLRHYYNWLTRQRY-NH2.C20DA-gGlu-gGlu-gGlu-gGlu-gGlu(1,2)]”, for which the pEC50 at hGLP1R (setting [1]) is 9.85; on hGIPR (setting [2]), 9.15; at hGIPR (setting [5]), 8.76; at hNPY2R (setting [3]), 7.96; on hNPY2R (setting [4]) it was 7.25.
Regarding “H-Y[Aib]EGTFTSDYSI[Aib]LEKQAQ[Aib]AFVEWLIK([εLys-γGlu-γGlu-γGlu-γGlu-γGlu-γGlu-C20 diacid])GGPSYYVSLRHYYNWLTRQRY-NH2 [Compound 80, Y-Aib-E-G-T-F-T-S-D-Y-S-I-Aib-L-E-K-Q-A-Q-Aib-A-F-V-E-W-L-I-K(1,3)-GGPSYYVSLRHYYNWLTRQRY-NH2.C20DA-gGlu-gGlu-gGlu-gGlu-gGlu-gGlu-eLys(1,2)]”, the pEC50 is 8.80 at hGLP1R (setting [1]), 9.10 at hGIPR (setting [2]), 7.89 on hNPY2R (setting [3]) and 7.26 on hNPY2R (setting [4]).
As for “H-Y[Aib]EGTFTSDYSI[Aib]LEKQAQ[Aib]EFVEWLIK([εLys-γGlu-γGlu-γGlu-γGlu-γGlu-C18 diacid])GGPSSGASLRHYYNWLTRQRY-NH2 [Compound 159, Y-Aib-E-G-T-F-T-S-D-Y-S-I-Aib-L-E-K-Q-A-Q-Aib-E-F-V-E-W-L-I-K(1,3)-GGPSSGASLRHYYNWLTRQRY-NH2.C18DA-gGlu-gGlu-gGlu-gGlu-gGlu-eLys(1,2)]”, the pEC50 was 9.72 on hGLP1R (setting [1]); 9.46 on hGIPR (setting [2]); 9.04 on hGIPR (setting [5]); 7.86 at hNPY2R (setting [3]); 7.46 on hNPY2R (setting [4]).

These data come from patent publication US20240247080A1, “GLP1/GIP/NPY2 RECEPTOR TRIPLE AGONISTS” (Boehringer Ingelheim International GmbH, priority 2022, published 2024).
